pIC50: −log10 of the molar value. Read-outs that look alike come from different tables or passages of the source.
Tests used:
Type in all cases: biochemical
Human recombinant HDAC1 = target: T1, Human recombinant HDAC1 (Homo sapiens, UniProt Q13547); assay: HDAC enzyme activity test, HDAC1
T1 construct: purchased Enzo Life Science Co. (named for the kit; assigned to the enzyme from the BML- catalogue prefix) BML-SE456
Method: (§1) Then, 0.3 μg of enzyme and 10 μM of substrate per well were added, reacted at 30° C. for 60 minutes. Thereto, Fluor de Lys® Developer II (BML-KI176) was added and reacted for 30 minutes. […] From the data, the respective IC50 were calculated by GraphPad Prism 4.0 program.

human recombinant HDAC6 = target: T2, human recombinant HDAC6 (Homo sapiens, UniProt Q9UBN7); assay: HDAC enzyme activity test, HDAC6
T2 construct: purchased Calibiochem Co. (so in the source) 382180
T2 sequence (Q9UBN7 1-1215): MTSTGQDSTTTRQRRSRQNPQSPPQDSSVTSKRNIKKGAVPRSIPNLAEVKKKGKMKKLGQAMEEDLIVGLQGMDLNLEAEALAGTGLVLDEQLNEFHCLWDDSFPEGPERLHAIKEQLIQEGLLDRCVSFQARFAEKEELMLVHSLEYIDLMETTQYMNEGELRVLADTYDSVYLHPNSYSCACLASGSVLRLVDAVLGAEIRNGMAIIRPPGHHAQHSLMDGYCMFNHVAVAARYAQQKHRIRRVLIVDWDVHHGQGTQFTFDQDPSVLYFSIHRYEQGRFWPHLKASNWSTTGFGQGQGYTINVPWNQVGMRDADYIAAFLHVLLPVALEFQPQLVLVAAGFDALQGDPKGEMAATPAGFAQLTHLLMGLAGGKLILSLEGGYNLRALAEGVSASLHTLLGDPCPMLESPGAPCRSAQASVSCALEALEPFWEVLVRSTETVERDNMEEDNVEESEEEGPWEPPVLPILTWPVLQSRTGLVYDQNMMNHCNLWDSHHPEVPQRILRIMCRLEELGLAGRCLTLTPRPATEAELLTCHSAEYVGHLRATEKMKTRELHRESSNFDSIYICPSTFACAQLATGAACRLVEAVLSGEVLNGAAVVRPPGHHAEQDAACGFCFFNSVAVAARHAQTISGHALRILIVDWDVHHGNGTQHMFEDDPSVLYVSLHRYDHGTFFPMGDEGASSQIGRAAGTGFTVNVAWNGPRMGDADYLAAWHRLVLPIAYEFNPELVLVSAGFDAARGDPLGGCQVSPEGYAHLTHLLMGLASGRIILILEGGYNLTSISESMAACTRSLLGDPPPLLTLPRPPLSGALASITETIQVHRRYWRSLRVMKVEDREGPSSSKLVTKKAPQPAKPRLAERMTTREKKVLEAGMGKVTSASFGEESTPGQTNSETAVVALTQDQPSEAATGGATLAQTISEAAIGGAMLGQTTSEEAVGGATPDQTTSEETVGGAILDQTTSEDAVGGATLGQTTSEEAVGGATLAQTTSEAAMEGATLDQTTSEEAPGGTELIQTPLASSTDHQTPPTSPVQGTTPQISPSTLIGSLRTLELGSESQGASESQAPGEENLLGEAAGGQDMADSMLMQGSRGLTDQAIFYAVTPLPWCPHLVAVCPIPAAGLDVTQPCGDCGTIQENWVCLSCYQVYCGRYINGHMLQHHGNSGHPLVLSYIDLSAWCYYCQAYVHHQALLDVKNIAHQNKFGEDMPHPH
Method: as §1

HDAC8 = target: T3, HDAC8 (Homo sapiens, UniProt Q9BY41); assay: HDAC enzyme activity test, HDAC8; details: Table 11, eleven HDAC isozymes; read-out: Inhibition ability (IC50) against HDAC8
T3 sequence (Q9BY41 1-377): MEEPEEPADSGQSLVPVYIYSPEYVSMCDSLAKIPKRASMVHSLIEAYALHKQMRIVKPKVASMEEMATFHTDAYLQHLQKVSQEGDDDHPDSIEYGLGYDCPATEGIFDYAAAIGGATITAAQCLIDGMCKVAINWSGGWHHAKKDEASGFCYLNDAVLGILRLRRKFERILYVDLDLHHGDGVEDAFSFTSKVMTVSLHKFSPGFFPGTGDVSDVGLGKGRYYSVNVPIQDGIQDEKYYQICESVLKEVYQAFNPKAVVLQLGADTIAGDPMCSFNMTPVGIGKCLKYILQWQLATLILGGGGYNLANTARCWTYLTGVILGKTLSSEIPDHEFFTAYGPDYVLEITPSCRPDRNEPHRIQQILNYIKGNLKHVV
Method: as §1

HDAC9 = HDAC9 (Homo sapiens, UniProt Q9UKV0); assay: HDAC enzyme activity test, HDAC9; details: Table 11, eleven HDAC isozymes; read-out: Inhibition ability (IC50) against HDAC9
Sequence of HDAC9 (Q9UKV0 whole entry, species assumed): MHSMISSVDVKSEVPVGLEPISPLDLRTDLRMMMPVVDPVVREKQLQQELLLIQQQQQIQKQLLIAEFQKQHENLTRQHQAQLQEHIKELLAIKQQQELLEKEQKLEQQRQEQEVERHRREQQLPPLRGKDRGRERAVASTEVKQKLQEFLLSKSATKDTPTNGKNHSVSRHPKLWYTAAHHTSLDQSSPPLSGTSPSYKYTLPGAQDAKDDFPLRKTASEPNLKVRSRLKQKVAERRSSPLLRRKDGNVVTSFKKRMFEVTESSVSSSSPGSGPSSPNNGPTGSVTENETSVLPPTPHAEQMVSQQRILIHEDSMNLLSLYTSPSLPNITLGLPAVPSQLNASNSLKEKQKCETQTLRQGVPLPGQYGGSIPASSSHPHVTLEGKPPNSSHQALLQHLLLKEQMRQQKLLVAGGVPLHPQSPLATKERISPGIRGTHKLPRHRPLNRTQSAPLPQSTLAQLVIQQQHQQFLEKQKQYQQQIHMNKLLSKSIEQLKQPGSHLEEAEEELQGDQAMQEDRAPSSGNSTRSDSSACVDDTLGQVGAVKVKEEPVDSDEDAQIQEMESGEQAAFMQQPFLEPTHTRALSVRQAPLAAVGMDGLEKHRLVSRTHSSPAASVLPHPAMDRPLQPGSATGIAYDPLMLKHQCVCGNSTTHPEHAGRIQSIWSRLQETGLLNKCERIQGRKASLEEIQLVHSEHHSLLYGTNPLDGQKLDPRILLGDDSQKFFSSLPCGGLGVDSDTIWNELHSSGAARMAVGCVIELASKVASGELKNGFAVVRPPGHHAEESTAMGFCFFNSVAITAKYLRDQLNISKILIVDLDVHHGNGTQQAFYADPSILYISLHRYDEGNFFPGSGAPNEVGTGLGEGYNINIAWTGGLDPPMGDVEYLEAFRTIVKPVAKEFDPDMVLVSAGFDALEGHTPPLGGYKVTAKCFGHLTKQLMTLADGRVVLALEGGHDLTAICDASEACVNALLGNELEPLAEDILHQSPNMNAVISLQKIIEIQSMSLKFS
Method: as §1

HDAC11 = target: T4, HDAC11 (Homo sapiens, UniProt Q96DB2); assay: HDAC enzyme activity test, HDAC11; details: Table 11, eleven HDAC isozymes; read-out: Inhibition ability (IC50) against HDAC11
T4 sequence (Q96DB2 1-347): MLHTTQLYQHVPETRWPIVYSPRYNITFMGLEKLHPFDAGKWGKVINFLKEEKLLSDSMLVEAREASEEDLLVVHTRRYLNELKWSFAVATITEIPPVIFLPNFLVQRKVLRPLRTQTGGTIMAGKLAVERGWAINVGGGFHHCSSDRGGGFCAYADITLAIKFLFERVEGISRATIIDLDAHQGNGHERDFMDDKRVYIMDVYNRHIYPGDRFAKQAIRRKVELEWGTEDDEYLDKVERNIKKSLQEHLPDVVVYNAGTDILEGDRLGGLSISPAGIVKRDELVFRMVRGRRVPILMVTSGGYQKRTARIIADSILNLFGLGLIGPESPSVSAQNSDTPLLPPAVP
Method: as §1

T1 sequence (Q13547 whole entry): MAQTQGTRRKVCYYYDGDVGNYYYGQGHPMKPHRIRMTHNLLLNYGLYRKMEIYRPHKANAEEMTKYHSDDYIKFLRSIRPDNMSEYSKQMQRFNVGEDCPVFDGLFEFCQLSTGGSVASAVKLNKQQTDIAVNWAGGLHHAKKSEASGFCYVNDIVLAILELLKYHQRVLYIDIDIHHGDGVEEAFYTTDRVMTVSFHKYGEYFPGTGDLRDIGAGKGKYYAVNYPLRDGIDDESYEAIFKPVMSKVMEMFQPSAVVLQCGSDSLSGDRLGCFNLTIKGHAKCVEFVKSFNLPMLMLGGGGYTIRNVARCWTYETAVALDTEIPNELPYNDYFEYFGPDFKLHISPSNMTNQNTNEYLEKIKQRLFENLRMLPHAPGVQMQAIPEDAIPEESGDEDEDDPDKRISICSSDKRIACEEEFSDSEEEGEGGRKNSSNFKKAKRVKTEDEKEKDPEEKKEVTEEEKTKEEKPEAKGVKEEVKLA

**Q.** With `CC1(C)CC(=O)c2c(n(Cc3ccc(C(=O)NO)cc3)c3ccccc23)C1` [Compound 19, 4-((2,2-dimethyl-4-oxo-1,2,3,4-tetrahydrocarbazol-9-yl)methyl)-N-hydroxybenzamide] as the compound, how does the pIC50 (Human recombinant HDAC1; Table 11, eleven HDAC isozymes, read-out: Inhibition ability (IC50) against HDAC1) read?
**A.** 4.74

**Q.** And the pIC50 (Human recombinant HDAC1; Table 12, read-out: Inhibition ability (IC50) HDAC1)?
**A.** 5.37

**Q.** What about the pIC50 (human recombinant HDAC6; Table 11, eleven HDAC isozymes, read-out: Inhibition ability (IC50) against HDAC6) of the same compound?
**A.** 7.45

**Q.** What about the “Selectivity for HDAC6, HD1/HD6” value (human recombinant HDAC6; Table 12, ratio HDAC1 IC50 / HDAC6 IC50) of the same compound?
**A.** 201.8

**Q.** And the pIC50 (human recombinant HDAC6; Table 12, read-out: Inhibition ability (IC50) HDAC6)?
**A.** 7.68

**Q.** What about the pIC50 (HDAC8) of the same compound?
**A.** 6.10

**Q.** And the pIC50 (HDAC9)?
**A.** 4.52

**Q.** What about the pIC50 (HDAC11) of the same compound?
**A.** 4.65

From patent publication US20140315889A1, “HYDROXAMATE DERIVATIVES FOR HDAC INHIBITOR, AND THE PHARMACEUTICAL COMPOSITION COMPRISING THEREOF” (CHONG KUN DANG PHARMACEUTICAL CORP., priority 2011, published 2014)
